Laboratory results: patent publication US20250171459A1, “2-METHYL-4',5'-DIHYDROSPIRO[PIPERIDINE-4,7'-THIENO[2,3-C]PYRAN] DERIVATIVES AS INHIBITORS OF APOL1 AND METHODS OF USING SAME” (Vertex Pharmaceuticals Incorporated, priority 2022, published 2025)
pIC50: −log10 of the molar value.

Target: T1, APOL1 (Homo sapiens, UniProt O14791)
T1 sequence (O14791 1-398 S342G/I384M): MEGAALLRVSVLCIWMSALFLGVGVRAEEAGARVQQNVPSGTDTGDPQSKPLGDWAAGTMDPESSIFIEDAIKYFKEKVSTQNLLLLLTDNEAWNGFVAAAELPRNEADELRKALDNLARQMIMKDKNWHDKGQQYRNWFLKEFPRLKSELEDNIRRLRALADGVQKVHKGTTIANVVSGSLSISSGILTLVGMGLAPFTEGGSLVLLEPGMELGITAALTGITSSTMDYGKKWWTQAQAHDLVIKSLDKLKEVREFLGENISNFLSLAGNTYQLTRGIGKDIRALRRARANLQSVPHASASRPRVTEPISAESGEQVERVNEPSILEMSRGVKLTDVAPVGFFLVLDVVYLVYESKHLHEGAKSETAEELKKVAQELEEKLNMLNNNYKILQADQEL
Assay: MultiTox-Fluor Multiplex Cytotoxicity Assay in tet-inducible APOL1 T-REx-HEK293 cells (cell rescue, ratio of dead to live cells)
Assay type: cell-based
Conditions: tet-inducible transgenic APOL1 T-REx-HEK293 cell lines, 50 ng/mL tet, 24 hours; read-out: IP50 (i.e., IC50 for cell proliferation)
In short: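 T-REx-HEK293 cells with tet-inducible APOL1 were treated with compound (10 μM top, 10-point 3-fold dilution, duplicate) plus 50 ng/mL tetracycline for 24 h at 37° C, in DMEM with 2% tet-free FBS. MultiTox-Fluor protease signals gave a dead/live ratio, normalized to no tet (100% viability) and tet alone (0%).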

| Structure (SMILES) | pIC50 |
| --- | --- |
| CNC(=O)C(C)(O)Cn1cc(CN2CC[C@]3(C[C@@H]2C)OCCc2c3sc(C(F)(F)F)c2CO)cn1 (stereo partly drawn) [Compound 990, 2-Hydroxy-3-[4-[[(2′S, 7R)-3-(hydroxymethyl)-2′-methyl-2-(trifluoromethyl)spiro[4,5-dihydrothieno[2,3-c]pyran-7,4′-piperidine]-1′-yl]methyl]pyrazol-1-yl]-N,2-dimethyl-propanamide] | > 7.00 |
| CCc1cc2c(s1)CCO[C@@]21CCN(C[C@H]2C[C@@H](NC(=O)c3ccc(=O)[nH]n3)C2)[C@@H](C)C1 [Compound 349] | > 7.00 |
| CCc1cc2c(s1)CCO[C@@]21CCN(Cc2cn(CCSCCO)nn2)[C@@H](C)C1 [Compound 23] | > 7.00 |
| CCc1cc2c(s1)CCO[C@@]21CCN(C[C@H]2C[C@@H](NS(=O)(=O)c3ccccc3OC)C2)[C@@H](C)C1 [Compound 404] | > 7.00 |
| CCc1cc2c(s1)CCOC21CCN(Cc2cnc(NC3CC3OC)nc2)CC1 (centres unmarked) [Compound 1076] | 6.30 to 7.00 |
| CCc1cc2c(s1)CCO[C@@]21CCN(CC(=O)C(C)(C)C)[C@@H](C)C1 [Compound 290] | 6.00 to 6.30 |
| CCn1cc(CN2CC[C@]3(C[C@@H]2C)OCCc2cc(Cl)sc23)cn1 [Compound 702] | > 7.00 |
| CCc1cc2c(s1)CCO[C@@]21CCN(Cc2cn(Cc3ccncn3)nn2)[C@@H](C)C1 [Compound 55] | 6.30 to 7.00 |
| CCC1Cc2sc(Cl)cc2C2(CCN(Cc3cnn(C)c3)[C@@H](C)C2)O1 (some centres unmarked) [Compound 533] | 6.00 to 6.30 |
| C[C@H]1C[C@@]2(CCN1Cc1cn(C(C)(C)CO)nn1)OCCc1cc(CC(F)F)sc12 [Compound 544] | 6.00 to 6.30 |
| CCc1cc2c(s1)CCO[C@@]21CCN(CC2CN(C(=O)Cn3cnnn3)C2)[C@@H](C)C1 [Compound 464] | > 7.00 |
| Cc1nc(CN2CC[C@]3(C[C@@H]2C)OCCc2cc(CC(F)F)sc23)c(C)o1 [Compound 618] | 6.00 to 6.30 |
| C[C@H]1C[C@@]2(CCN1Cc1cnn(CC(O)CC3(O)CCC3)c1)OCCc1c2sc(C(F)(F)F)c1CO (some centres unmarked) [Compound 961] | > 7.00 |
| C[C@H]1C[C@@]2(CCN1Cc1cnn(CC(O)C(N)=O)c1)OC[C@@H](O)c1cc(C(F)(F)F)sc12 (some centres unmarked) [Compound 970] | > 7.00 |
| CCc1cc2c(s1)CCOC21CCN(Cc2cc(O)ccn2)CC1 [Compound 1152] | 6.00 to 6.30 |
| CCc1cc2c(s1)CCO[C@@]21CCN(C[C@H]2C[C@@H](NC(=O)C3CCN(C(C)=O)CC3)C2)[C@@H](C)C1 [Compound 355] | > 7.00 |
| CCc1cc2c(s1)CCO[C@@]21CCN(Cc2cn(C3(CO)CCOC3)nn2)[C@@H](C)C1 (some centres unmarked) [Compound 170] | 6.00 to 6.30 |
| C[C@H]1C[C@@]2(CCN1Cc1cnn(CC(O)CC3(O)CCC3)c1)OC[C@@H](O)c1cc(C(F)(F)F)sc12 (some centres unmarked) [Compound 976] | > 7.00 |
| C#CCN1CC[C@]2(C[C@@H]1C)OCCc1cc(Cl)sc12 [Compound 625, (2′S, 7R)-2-chloro-2′-methyl-1′-prop-2-ynyl-spiro[4,5-dihydrothieno[2,3-c]pyran-7,4′-piperidine]] | 6.00 to 6.30 |
| C[C@H]1C[C@@]2(CCN1Cc1cnn(CC3(O)CCCOC3)c1)OCCc1c2sc(C(F)(F)F)c1CO (some centres unmarked) [Compound 952] | > 7.00 |
| C[C@H]1C[C@@]2(CCN1CCC(F)(F)F)OCCc1cc(CC(F)F)sc12 [Compound 582] | 6.00 to 6.30 |
| CCc1cc2c(s1)CCO[C@@]21CCN(Cc2cnc(N[C@H]3COC[C@@H]3O)nc2)[C@@H](C)C1 [Compound 203] | > 7.00 |
| CCc1cc2c(s1)CCOC21CCN(Cc2cn(CC(COC)OC)nn2)C(C)C1 (centres unmarked) [Compound 137] | > 7.00 |
| C[C@H]1C[C@@]2(CCN1Cc1cn(C3CCOCC3)nn1)OC[C@](O)(C(F)F)c1cc(Cl)sc12 [Compound 841] | > 7.00 |
| CCc1cc2c(s1)CCOC21CCN(Cc2cn(CC(O)c3ccccn3)nn2)C(C)C1 (centres unmarked) [Compound 76] | 6.30 to 7.00 |
| CCc1cc2c(s1)CCO[C@@]21CCN(CC2CN(C(=O)c3cc(C(F)(F)F)n[nH]3)C2)[C@@H](C)C1 [Compound 462] | > 7.00 |
| CCc1cc2c(s1)CCOC21CCN(Cc2ccc(C(=O)Nc3c[nH]c4ccccc34)nc2)CC1 [Compound 1044] | > 7.00 |

| Structure (SMILES) | pIC50 |
| --- | --- |
| CCc1cc2c(s1)CCO[C@@]21CCN(C[C@H]2C[C@@H](NC(=O)c3cnc(C)nc3)C2)[C@@H](C)C1 [Compound 329] | 6.30 to 7.00 |
| CCc1cc2c(s1)CCO[C@@]21CCN(Cc2cn(CCN3CCS(=O)(=O)CC3)nn2)[C@@H](C)C1 [Compound 175] | 6.00 to 6.30 |
| CS(=O)(=O)CCn1cc(CN2CCC3(CC2C2CC2)OCCc2cc(Cl)sc23)cn1 (centres unmarked) [Compound 1040, 2-chloro-2′-cyclopropyl-1′-[[1-(2-methylsulfonylethyl)pyrazol-4-yl]methyl]spiro[4,5-dihydrothieno[2,3-c]pyran-7,4′-piperidine]] | > 7.00 |
| COCCC(O)Cn1cc(CN2CC[C@]3(C[C@@H]2C)OCCc2c3sc(C(F)(F)F)c2CO)cn1 (some centres unmarked) [Compound 967] | > 7.00 |
| C[C@H]1C[C@@]2(CCN1Cc1cnccn1)OCCc1c2sc(Cl)c1CO [Compound 737] | 6.00 to 6.30 |
| C[C@H]1C[C@@]2(CCN1Cc1cccc(OCCO)c1)OCCc1cc(Cl)sc12 [Compound 646] | > 7.00 |
| C[C@H]1C[C@@]2(CCN1Cc1ccc[nH]c1=O)OCCc1cc(CC(F)F)sc12 [Compound 577] | 6.30 to 7.00 |
| C[C@H]1C[C@@]2(CCN1Cc1ccc(N3CCCC3=O)cc1)OCCc1c2sc(Cl)c1CO [Compound 714] | > 7.00 |
| C[C@H]1C[C@@]2(CCN1Cc1cnn(CC(O)CC(F)(F)F)c1)OCCc1c2sc(C(F)(F)F)c1CO (some centres unmarked) [Compound 892] | > 7.00 |
| CCCNC(=O)c1c(C(F)(F)F)sc2c1CCO[C@@]21CCN(Cc2cn(CCS(C)(=O)=O)nn2)[C@@H](C)C1 [Compound 1007, (2′S,7R)-2′-methyl-1′-[[1-(2-methylsulfonylethyl)triazol-4-yl]methyl]-N-propyl-2-(trifluoromethyl)spiro[4,5-dihydrothieno[2,3-c]pyran-7,4′-piperidine]-3-carboxamide] | 6.00 to 6.30 |
| C[C@H]1C[C@@]2(CCN1Cc1cnn(CC(O)CC3(C#N)CC3)c1)OCCc1c2sc(C(F)(F)F)c1CO (some centres unmarked) [Compound 950] | > 7.00 |
| CCc1cc2c(s1)CCO[C@@]21CCN(C[C@H]2C[C@@H](NC(=O)OCCOCCOCCOC(=O)NCCOCCOCCCCCCCl)C2)[C@@H](C)C1 [Compound 386, 2-[2-[2-[[3-[[(2′S,4R)-2-ethyl-2′-methyl-spiro[6,7-dihydrothieno[3,2-c]pyran-4,4′-piperidine]-1′-yl]methyl]cyclobutyl]carbamoyloxy]ethoxy]ethoxy]ethyl N-[2-[2-(6-chlorohexoxy)ethoxy]ethyl]carbamate] | > 7.00 |
| Cc1sc2c(c1CO)CCO[C@@]21CCN(Cc2cnn(CCS(C)(=O)=O)c2)[C@@H](C)C1 [Compound 765, [(2′S, 7R)-2,2′-dimethyl-1′-[[1-(2-methylsulfonylethyl)pyrazol-4-yl]methyl]spiro[4,5-dihydrothieno[2,3-c]pyran-7,4′-piperidine]-3-yl]methanol] | > 7.00 |
| C[C@H]1C[C@@]2(CCN1CC1(O)CCOCC1)OCCc1cc(CC(F)F)sc12 [Compound 600] | 6.30 to 7.00 |
| CCc1cc2c(s1)CCO[C@@]21CCN(C[C@H]2C[C@@H](NS(=O)(=O)c3ccc4[nH]c(=O)[nH]c4c3)C2)[C@@H](C)C1 [Compound 416] | 6.30 to 7.00 |
| CC1COC2(CCN(Cc3cn(CCS(C)(=O)=O)nn3)[C@@H](C)C2)c2cc(Cl)sc21 (some centres unmarked) [Compound 540] | > 7.00 |
| C[C@H]1C[C@@]2(CCN1C1COCC1O)OCCc1cc(CC(F)F)sc12 (some centres unmarked) [Compound 609] | > 7.00 |
| C[C@H]1C[C@@]2(CCN1Cc1cnn(CC(=O)N(C)C)c1)OCCc1c2sc(C(F)(F)F)c1CO [Compound 897] | > 7.00 |
| CCc1cc2c(s1)CCO[C@@]21CCN(C[C@H]2C[C@@H](NS(=O)(=O)CCO)C2)[C@@H](C)C1 [Compound 388, N-[3-[[(2′S,4R)-2-ethyl-2′-methyl-spiro[6,7-dihydrothieno[3,2-c]pyran-4,4′-piperidine]-1′-yl]methyl]cyclobutyl]-2-hydroxy-ethanesulfonamide] | > 7.00 |
| C[C@H]1C[C@@]2(CCN1Cc1cnn(CC(=O)N(C)C)c1)OC[C@@H](O)c1cc(C(F)(F)F)sc12 [Compound 886] | > 7.00 |
| C[C@H]1C[C@@]2(CCN1Cc1cnn(CC3CC4(CCC4)C(=O)O3)c1)OCCc1c2sc(C(F)(F)F)c1CO (some centres unmarked) [Compound 982] | > 7.00 |
| CCc1cc2c(s1)C(C)COC21CCN(Cc2cn(CCS(C)(=O)=O)nn2)[C@@H](C)C1 (some centres unmarked) [Compound 537] | > 7.00 |
| CC(C)OC1CO[C@@]2(CCN(Cc3cnn(CCS(C)(=O)=O)c3)[C@@H](C)C2)c2sc(Cl)cc21 (some centres unmarked) [Compound 845] | 6.30 to 7.00 |
| CCc1cc2c(s1)CCO[C@@]21CCN(CC2CN(C(=O)OC)C2)[C@@H](C)C1 [Compound 424, methyl 3-[[(2′S,4R)-2-ethyl-2′-methyl-spiro[6,7-dihydrothieno[3,2-c]pyran-4,4′-piperidine]-1′-yl]methyl]azetidine-1-carboxylate] | 6.00 to 6.30 |
| CCc1cc2c(s1)CCO[C@@]21CCN(C[C@H]2C[C@@H](NC(=O)C3(O)CC3)C2)[C@@H](C)C1 [Compound 335] | > 7.00 |
| Cc1cc2c(s1)CCO[C@@]21CCN(Cc2cn(CCS(C)(=O)=O)nn2)[C@@H](C)C1 [Compound 510, (2′S)-2,2′-dimethyl-1′-[[1-(2-methylsulfonylethyl)triazol-4-yl]methyl]spiro[6,7-dihydrothieno[3,2-c]pyran-4,4′-piperidine]] | > 7.00 |
